US9120752B2, “Pyridine compounds as sodium channel blockers” (Purdue Pharma, L.P., priority 2010, dated 2015)

Target: human Nav1.7 (Homo sapiens (Human), UniProt Q15858)
Assay: FLIPR or FLIPR TETRA sodium dye assay with KCl and test article pre-incubation
Format: cell-based
Details: sodium dye assay with KCl; recombinant Nav1.7/HEK293 cells; read-out: Nav1.7 IC50 (μM) ± SEM

Sequence of human Nav1.7 (Q15858 other isoform, or with tags, fused parts or gaps): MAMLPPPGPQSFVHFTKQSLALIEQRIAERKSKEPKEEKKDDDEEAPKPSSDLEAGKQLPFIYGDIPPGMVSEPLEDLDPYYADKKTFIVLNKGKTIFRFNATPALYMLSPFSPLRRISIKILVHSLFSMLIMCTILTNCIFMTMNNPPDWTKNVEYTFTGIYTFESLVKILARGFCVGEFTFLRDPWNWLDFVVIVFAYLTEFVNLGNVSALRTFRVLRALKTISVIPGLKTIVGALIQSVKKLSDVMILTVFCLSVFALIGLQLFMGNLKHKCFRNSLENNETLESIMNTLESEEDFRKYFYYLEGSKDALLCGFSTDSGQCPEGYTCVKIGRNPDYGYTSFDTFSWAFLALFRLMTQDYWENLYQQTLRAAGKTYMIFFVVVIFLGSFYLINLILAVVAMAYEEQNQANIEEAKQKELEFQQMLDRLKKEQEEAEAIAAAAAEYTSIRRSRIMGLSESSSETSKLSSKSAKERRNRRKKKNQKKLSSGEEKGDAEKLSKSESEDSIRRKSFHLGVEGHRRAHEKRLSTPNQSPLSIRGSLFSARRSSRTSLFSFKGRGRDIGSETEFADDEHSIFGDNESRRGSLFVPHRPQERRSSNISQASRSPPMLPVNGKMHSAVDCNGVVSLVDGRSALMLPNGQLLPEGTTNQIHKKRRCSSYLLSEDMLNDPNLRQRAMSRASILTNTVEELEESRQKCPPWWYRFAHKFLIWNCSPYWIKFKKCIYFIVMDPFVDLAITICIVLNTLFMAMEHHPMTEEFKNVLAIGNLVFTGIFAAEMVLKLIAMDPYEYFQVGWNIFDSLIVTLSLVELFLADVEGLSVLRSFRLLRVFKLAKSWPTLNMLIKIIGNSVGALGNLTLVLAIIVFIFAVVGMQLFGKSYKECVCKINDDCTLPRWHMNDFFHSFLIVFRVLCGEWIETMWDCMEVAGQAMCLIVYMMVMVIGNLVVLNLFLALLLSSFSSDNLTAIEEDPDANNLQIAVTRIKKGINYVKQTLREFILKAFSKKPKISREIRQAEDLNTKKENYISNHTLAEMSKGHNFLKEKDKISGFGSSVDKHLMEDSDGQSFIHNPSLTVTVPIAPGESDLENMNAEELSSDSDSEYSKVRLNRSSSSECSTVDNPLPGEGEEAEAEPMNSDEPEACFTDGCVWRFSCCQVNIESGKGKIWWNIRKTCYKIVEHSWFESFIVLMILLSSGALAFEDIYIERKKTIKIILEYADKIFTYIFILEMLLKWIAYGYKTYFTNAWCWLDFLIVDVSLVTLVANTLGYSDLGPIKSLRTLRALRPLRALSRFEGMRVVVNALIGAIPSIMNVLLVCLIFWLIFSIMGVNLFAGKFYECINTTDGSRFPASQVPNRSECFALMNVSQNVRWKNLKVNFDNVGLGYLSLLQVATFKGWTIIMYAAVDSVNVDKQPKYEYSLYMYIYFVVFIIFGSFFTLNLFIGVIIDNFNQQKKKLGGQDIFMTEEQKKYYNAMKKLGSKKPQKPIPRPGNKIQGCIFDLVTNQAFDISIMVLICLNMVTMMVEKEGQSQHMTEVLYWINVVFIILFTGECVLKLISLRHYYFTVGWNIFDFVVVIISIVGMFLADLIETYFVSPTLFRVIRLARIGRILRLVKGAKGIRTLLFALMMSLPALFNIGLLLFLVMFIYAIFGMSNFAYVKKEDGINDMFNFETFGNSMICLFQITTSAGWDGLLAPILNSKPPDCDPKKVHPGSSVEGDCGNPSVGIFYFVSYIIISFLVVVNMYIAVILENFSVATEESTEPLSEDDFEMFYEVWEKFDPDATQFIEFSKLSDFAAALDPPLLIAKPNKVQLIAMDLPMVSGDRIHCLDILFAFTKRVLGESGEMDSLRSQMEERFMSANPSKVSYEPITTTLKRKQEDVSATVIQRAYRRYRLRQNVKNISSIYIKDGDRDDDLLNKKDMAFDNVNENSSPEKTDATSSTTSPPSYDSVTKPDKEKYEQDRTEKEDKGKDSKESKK

| SMILES | IC50 |
| --- | --- |
| CC(C)C[C@H](NC(=O)c1cc([C@H](O)CO)cc(-c2ccc(Oc3ccc(F)cc3)cc2)n1)C(N)=O [Compound 63, N—((S)-1-amino-4-methyl-1-oxopentan-2-yl)-4-((S)-1,2-dihydroxyethyl)-6-(4-(4-fluorophenoxy)phenyl)picolinamide] | 0.814 ± 0.231 µM |
| NC(=O)C[C@H](NC(=O)c1cc([C@@H](O)CO)cc(-c2ccc(Oc3ccc(F)cc3)cc2)n1)C(N)=O [Compound 66, (S)-2-(4-((R)-1,2-dihydroxyethyl)-6-(4-(4-fluorophenoxy)phenyl)picolinamido) succinamide] | > 20 µM |
| N#Cc1cccc(S(=O)(=O)N2CCN(C(=O)c3cccc(-c4ccc(F)cc4)n3)CC2)c1 [Compound 56, 3-((4-(6-(4-fluorophenyl)picolinoyl)piperazin-1-yl)sulfonyl)benzonitrile] | 6.81 ± 0.57 µM |
| CS(=O)(=O)c1cccc(S(=O)(=O)N2CCN(C(=O)c3cccc(-c4ccc(Oc5ccc(F)cc5)cc4)n3)CC2)c1 [Compound 8, (6-(4-(4-fluorophenoxy)phenyl)pyridin-2-yl)(4-((3-(methylsulfonyl)phenyl)sulfonyl)piperazin-1-yl)methanone] | 0.78 ± 0.17 µM |
| NCCCC[C@H](NC(=O)c1cccc(-c2ccc(Oc3ccc(F)cc3)cc2)n1)C(N)=O [Compound 51, (S)—N-(1,6-diamino-1-oxohexan-2-yl)-6-(4-(4-fluorophenoxy)phenyl)picolinamide] | 2.89 ± 0.33 µM |
| N#Cc1cccc(S(=O)(=O)N2CCN(C(=O)c3cccc(Oc4ccc(F)cc4)n3)CC2)c1 [Compound 55, 3-((4-(6-(4-fluorophenoxy)picolinoyl)piperazin-1-yl)sulfonyl)benzonitrile] | 5.94 ± 0.73 µM |
| C[C@H](NC(=O)c1cccc(-c2ccc(Oc3ccc(C(F)(F)F)cn3)cc2)n1)C(N)=O [Compound 61, (S)—N-(1-amino-1-oxopropan-2-yl)-6-(4-((5-(trifluoromethyl)pyridin-2-yl)oxy)phenyl)picolinamide] | 4.34 ± 0.73 µM |
| CC(C)C[C@H](NC(=O)c1cc([C@@H](O)CO)cc(-c2ccc(Oc3ccc(F)cc3)cc2)n1)C(N)=O [Compound 65, N—((S)-1-amino-4-methyl-1-oxopentan-2-yl)-4-((R)-1,2-dihydroxyethyl)-6-(4-(4-fluorophenoxy)phenyl)picolinamide] | 1.56 ± 0.166 µM |
| CN1CCOc2cc(S(=O)(=O)N3CCN(C(=O)c4cccc(-c5ccc(Oc6ccc(F)cc6)cc5)n4)CC3)ccc21 [Compound 60, (6-(4-(4-fluorophenoxy)phenyl)pyridin-2-yl)(4-((4-methyl-3,4-dihydro-2H-benzo[b][1,4]oxazin-7-yl)sulfonyl)piperazin-1-yl)methanone] | 0.78 ± 0.1 µM |
| NC(=O)[C@@H](CO)NC(=O)c1cccc(-c2ccc(Oc3ccc(F)cc3)cc2)n1 [Compound 40, 6-[4-(4-fluoro-phenoxy)-phenyl]-pyridine-2-carboxylic acid ((R)-1-carbamoyl-2-hydroxyl-ethyl)-amide] | 1.32 ± 0.16 µM |
| CN(C)S(=O)(=O)N1CCN(C(=O)c2cccc(-c3ccc(Oc4ccc(F)cc4)cc3)n2)CC1 [Compound 11, 4-(6-(4-(4-fluorophenoxy)phenyl)picolinoyl)-N,N-dimethyl-piperazine-1-sulfonamide] | 1.01 ± 0.09 µM |
| N#Cc1cccc(S(=O)(=O)N2CCN(C(=O)c3cc([C@H](O)CO)cc(-c4ccc(Oc5ccc(F)cc5)cc4)n3)CC2)c1 [Compound 58, (S)-3-((4-(4-(1,2-dihydroxyethyl)-6-(4-(4-fluorophenoxy)phenyl)picolinoyl)piperazin-1-yl)sulfonyl)benzonitrile] | 2.31 ± 0.62 µM |
| NC(=O)[C@@H](Cc1c[nH]c2ccccc12)NC(=O)c1cccc(-c2ccc(Oc3ccc(F)cc3)cc2)n1 [Compound 37, 6-[4-(4-fluoro-phenoxy)-phenyl]-pyridine-2-carboxylic acid [(R)-1-carbamoyl-2-(1H-indol-3-yl)-ethyl]-amide] | 4.02 ± 2.78 µM |
| O=C(O)c1cccc(S(=O)(=O)N2CCN(C(=O)c3cccc(-c4ccc(Oc5ccc(F)cc5)cc4)n3)CC2)c1 [Compound 18, 3-((4-(6-(4-(4-fluorophenoxy)phenyl)picolinoyl)piperazin-1-yl)sulfonyl)benzoic acid] | 3.48 ± 0.72 µM |
| CC(O)[C@H](NC(=O)c1cccc(-c2ccc(Oc3ccc(F)cc3)cc2)n1)C(N)=O (stereo partly drawn) [Compound 43, 6-[4-(4-fluoro-phenoxy)-phenyl]-pyridine-2-carboxylic acid ((S)-1-carbamoyl-2-hydroxy-propyl)-amide] | 1.56 ± 0.5 µM |
| NC(=O)[C@H](Cc1ccccc1)NC(=O)c1cccc(-c2ccc(Oc3ccc(F)cc3)cc2)n1 [Compound 41, 6-[4-(4-fluoro-phenoxy)-phenyl]-pyridine-2-carboxylic acid ((S)-1-carbamoyl-2-phenyl-ethyl)-amide] | > 20 µM |

These reach a lower IC50. Values come first.

| IC50 | SMILES |
| --- | --- |
| 0.75 ± 0.05 µM | NC(=O)C[C@H](NC(=O)c1cccc(-c2ccc(Oc3ccc(F)cc3)cc2)n1)C(N)=O [Compound 39, (S)-2-({6-[4-(4-fluoro-phenoxy)-phenyl]-pyridine-2-carbonyl}-amino)-succinamide] |
| 0.61 ± 0.05 µM | CC(C)[C@H](NC(=O)c1cccc(-c2ccc(Oc3ccc(F)cc3)cc2)n1)C(N)=O [Compound 46, 6-[4-(4-fluoro-phenoxy)-phenyl]-pyridine-2-carboxylic acid ((S)-1-carbamoyl-2-methyl-propyl)-amide] |
| 0.55 ± 0.08 µM | NC(=O)[C@H](Cc1ccc(O)cc1)NC(=O)c1cccc(-c2ccc(Oc3ccc(F)cc3)cc2)n1 [Compound 48, 6-[4-(4-fluoro-phenoxy)-phenyl]-pyridine-2-carboxylic acid [(S)-1-carbamoyl-2-(4-hydroxy-phenyl)-ethyl]-amide] |
| 0.42 ± 0.04 µM | O=C(c1cccc(-c2ccc(Oc3ccc(F)cc3)cc2)n1)N1CCN(S(=O)(=O)c2cccnc2)CC1 [Compound 15, (6-(4-(4-fluorophenoxy)phenyl)pyridin-2-yl)(4-(pyridin-3-ylsulfonyl)piperazin-1-yl)methanone] |
| 0.39 ± 0.03 µM | CS(=O)(=O)c1cccc(S(=O)(=O)NCCNC(=O)c2cccc(-c3ccc(Oc4ccc(F)cc4)cc3)n2)c1 [Compound 23, 6-(4-(4-fluorophenoxy)phenyl)-N-(2-(3-(methylsulfonyl)phenylsulfonamido)ethyl)picolinamide] |
| 0.39 ± 0.08 µM | CS(=O)(=O)NCCNC(=O)c1cccc(-c2ccc(Oc3ccc(F)cc3)cc2)n1 [Compound 21, 6-(4-(4-fluorophenoxy)phenyl)-N-(2-(methylsulfonamido)ethyl)picolinamide] |
| 0.34 ± 0.13 µM | N#Cc1cc(S(=O)(=O)N2CCN(C(=O)c3cccc(-c4ccc(Oc5ccc(F)cc5)cc4)n3)CC2)ccc1F [Compound 59] |
| 0.33 ± 0.02 µM | NC(=O)[C@H](Cc1c[nH]cn1)NC(=O)c1cccc(-c2ccc(Oc3ccc(F)cc3)cc2)n1 [Compound 49, 6-[4-(4-fluoro-phenoxy)-phenyl]-pyridine-2-carboxylic acid [(S)-1-carbamoyl-2-(1H-imidazol-4-yl)-ethyl]-amide] |
| 0.32 ± 0.09 µM | O=C(c1cccc(-c2ccc(Oc3ccc(F)cc3)cc2)n1)N1CCN(S(=O)(=O)c2cccc(OC(F)(F)F)c2)CC1 [Compound 16] |
| 0.22 ± 0.04 µM | Cc1noc(C)c1S(=O)(=O)N1CCN(C(=O)c2cccc(-c3ccc(Oc4ccc(F)cc4)cc3)n2)CC1 [Compound 14, (4-((3,5-dimethylisoxazol-4-yl)sulfonyl)piperazin-1-yl)(6-(4-(4-fluorophenoxy)phenyl)pyridin-2-yl)methanone] |
